Results published in patent US4728736A, “Carbocyclic analogs of purine ribofuranosides” (priority 1984, dated 1988).
≈ marks a conversion by molar mass, not a printed value.

Key:
[1] = test system: herpes simplex virus, type 1 (strain HF); assay: Antiviral activity (virus rating); […]; format: cell-based; conditions: H.Ep. 2 cells; for EC50: Human alphaherpesvirus 1, HEp-2, strain HF, read-out: MIC50, Herpes Simplex Type 1; for Virus Rating (VR), Herpes Simplex Type 1: VR 0.5-0.9 marginal to moderate, VR >= 1 definite activity
[2] = test system: vaccinia virus (Lederle Chorioallantoic strain); assay: microbe, parasite or virus in culture; format: cell-based; conditions: for Virus Rating (VR), Vaccinia Virus: Lederle Chorioallantoic strain, H.Ep. 2 cells, VR 0.5-0.9 marginal to moderate, VR >= 1 definite activity; for EC50: Orthopoxvirus vaccinia, HEp-2, read-out: MIC50, Vaccinia Virus
[3] = test system: herpes simplex virus, type 1 (strain 377); assay: Antiviral activity (virus rating); […]; format: cell-based; conditions: strain 377, Vero cells; for EC50: Human alphaherpesvirus 1, 50% inhibition of virus-induced cytopathogenic effects, read-out: MIC50, Herpes Simplex Type 1; for Virus Rating (VR), Herpes Simplex Type 1: VR 0.5-0.9 marginal to moderate, VR >= 1 definite activity
[4] = test system: herpes simplex virus, type 1, and vaccinia virus; format: cell-based, type 1; vaccinia virus; conditions: cell culture
[5] = 50% inhibition of virus-induced cytopathogenic effects

| SMILES | EC50 [1, 5] | Virus Rating (VR), Herpes Simplex Type 1 ([1]; strain HF) | Virus Rating (VR), Vaccinia Virus [2] | EC50 [2] | MIC50, Herpes Simplex Type 1 ([1]; strain HF, 50% inhibition of virus-induced cytopathogenic effects) | EC50 [3] | Virus Rating (VR), Herpes Simplex Type 1 [3] | inhibiting replication of vaccinia virus (in words) [2] | antiviral activity (in words) [4] |
| --- | --- | --- | --- | --- | --- | --- | --- | --- | --- |
| Nc1nc(Cl)c2ncn([C@@H]3C[C@H](CO)[C@@H](O)[C@H]3O)c2n1 (relative stereo) [Example 1, (1α,2α,3β,5β)-3-(2-Amino-6-chloro-9HH-purin-9-yl)-5-(hydroxymethyl)-1,2-cyclopentanediol] | 10 µg/mL (≈ 33.4 µM) | 1.7 | 1.2 | 20 µg/mL (≈ 66.7 µM) |  |  |  |  |  |
| Nc1nc(N)c2ncn([C@@H]3C[C@H](CO)[C@@H](O)[C@H]3O)c2n1 (relative stereo) [Example 2, (1α,2α,3β,5β)-3-(2,6-Diamino-9H-purin-9-yl)-5-(hydroxymethyl)-1,2-cyclopentanediol] | 0.32 µg/mL (≈ 1.14 µM) | 4.6 | 3.8 | 2.3 µg/mL (≈ 8.21 µM) | 0.3 µg/mL (≈ 1.07 µM) | 197 µg/mL (≈ 703 µM) | 2.2 | highly active | very high activity |
| CNc1nc(N)nc2c1ncn2[C@@H]1C[C@H](CO)[C@@H](O)[C@H]1O (relative stereo) [Example 3, (1α,2α,3β,5β)-3-[2-Amino-6-(methylamino)-9H-purin-9-yl]-5-(hydroxymethyl)-1,2-cyclopentanediol] | 320 µg/mL (≈ 1090 µM) | 1.3 |  |  |  |  |  |  |  |
| Nc1nc(N)c2nnn([C@@H]3C[C@H](CO)[C@@H](O)[C@H]3O)c2n1 (relative stereo) [Example 6, (1α,2α,3β,5β)-3-(5,7-Diamino-3H-1,2,3-triazolo[4,5-d]pyrimidin-3-yl)-5-(hydroxymethyl)-1,2-cyclopentanediol] | 100 µg/mL (≈ 356 µM) | 1.4 |  |  |  |  | 0.6 |  |  |
| Nc1nc(Cl)c2nnn([C@@H]3C[C@H](CO)[C@@H](O)[C@H]3O)c2n1 (relative stereo) [Formula III, X = Cl, carbocyclic analog of 2-amino-6-chloro-8-azapurine ribofuranoside] | 81 µg/mL | 0.9 | 0.6 |  |  |  |  |  |  |
| Nc1nc2c(nnn2[C@@H]2C[C@H](CO)[C@@H](O)[C@H]2O)c(=O)[nH]1 (relative stereo) [Formula IV, Y = O, carbocyclic analog of 8-azaguanosine] |  |  |  |  |  | 58 µg/mL | 2.2 |  |  |
| Nc1ncnc2c1ncn2[C@@H]1O[C@H](CO)[C@@H](O)[C@@H]1O [Ara-A, reference compound] | 2.5 to 10 µg/mL (≈ 9.35 to 37.4 µM) | 2.0-2.2 |  |  |  |  |  |  |  |
